Laboratory results from US12611411B2, “Triple-agent therapy for cancer treatment” (CYTOMETRIC THERAPEUTICS, INC., priority 2021, dated 2026).

How the values were obtained:
[1] = test system: live cancer cell cultures; assay: Cytometric testing of the patient's cancer cells; assay type: cell-based, human; conditions: for activity in cytometric testing: Example 14, incompletely resected pancreatic cancer; for sensitivity in cytometric testing: Example 18, ascites of metastatic carcinoma of the urachus
From the text: Also disclosed are methods for in vitro testing a drug combination on cancer cells of a subject for cancer cell survival, wherein the drug combination comprises tamoxifen, gefitinib, and vinorelbine. The in vitro testing can comprise administering tamoxifen and gefitinib prior to, together with, and/or after, administering vinorelbine. The in vitro testing can comprise measuring the cancer cell survival. Suitable in vitro tests and methods for measuring the cancer cell survival include Differential Staining Cytotoxicity Assay (DiSC), MTT assay, ATP assay, and fluorescein diacetate assay (FDA). MTT assay is a colorimetric assay for assessing cell metabolic activity. Cellular enzymes are capable of reducing the tetrazolium dye MTT 3-(4,5-dimethylthiazol-2-yl)-2,5-diphenyltetrazolium bromide to its insoluble formazan, which has a purple color. ATP assays are procedures that can measure cell viability based on detection of ATP. All living cells, including bacteria, can be detected with ATP assays. Several detection methods can be used, such as colorimetric, fluorescent and bioluminescent. FDA uses a cell-permeant esterase substrate fluorescein diacetate that can serve as a viability probe and that measures both enzymatic activity, which is required to activate its fluorescence, and cell-membrane integrity, which is required for intracellular retention of their fluorescent product.
Use of tamoxifen at a high dose of 80 milligrams per meter squared (the typical dose in conventional cancer treatment is 20 mg daily) and high dose of gefitinib (187 milligrams per meter squared twice daily for 3 days—the typical dose in conventional cancer treatment is 250 mg daily) has been found in cytometric testing using live cancer cell cultures to transport vinorelbine into the cancer cell, producing extraordinary synergy in causing programmed apoptosis in the cancer cells (programmed cancer cell death) while sparing much of the normal tissues and giving dramatic clinical outcomes.

[2] = test system: squamous cell carcinoma of the breast; assay: TGV therapy case study, triple-negative squamous cell carcinoma of the breast (Example 11); assay type: in vivo, human; conditions: person, before TGV
From the text: (§1) The 17 case studies represent patients with metastatic esophageal cancer, metastatic skin cancer, metastatic breast cancer, leptomeningeal breast cancer, metastatic prostate cancer, glioblastoma multiforme, lung cancer, bowel cancer, acute myelogenous leukemia, esthesioneuroblastoma, and urothelial cancer.

urothelial cancer = assay: TGV therapy case study, urothelial cancer (Example 17); assay type: in vivo, human; conditions: person, before TGV (MVAC together with radiation therapy)
Experimental: as §1
A person with regionally advanced bladder cancer was presented with urothelial cancer in the trigone of their bladder. The patient was treated with radiation therapy and with dose dense MVAC (M—methotrexate, V—vinblastine, A—doxorubicin, C—Cisplatin). […] The patient was then treated with gemcitabine and cisplatin to which they had no response. The patient then had the retroperitoneal lymph nodes radiated to a complete response. The patient was followed monthly and when recurrent disease was discovered in the lung and mediastinum, they were started on Padcev® (Enfortumab vedotin), to which they had no response. The patient was then offered TGV. […] The patient had neutropenia within five days and was admitted. […] It was concluded that the patient should not be given repeated chemotherapy until their bone marrow had recovered.

Row | Compound | activity in cytometric testing [1] | response to prior chemotherapy [2] | sensitivity in cytometric testing [1] | response to prior therapy (urothelial cancer)
1 | O=c1[nH]cc(F)c(=O)[nH]1 [5-fluorouracil] | no evidence of response |  |  | 
2 | COc1cccc2c1C(=O)c1c(O)c3c(c(O)c1C2=O)C[C@@](O)(C(=O)CO)C[C@@H]3O[C@H]1C[C@H](N)[C@H](O)[C@H](C)O1 [Adriamycin] |  | refractory |  | 
3 | O=P1(N(CCCl)CCCl)NCCCO1 (stereo not shown) [Cytoxan] |  | refractory |  | 
4 | CC(=O)O[C@@]12CO[C@@H]1C[C@H](O)[C@@]1(C)C(=O)[C@H](O)C3=C(C)[C@@H](OC(=O)[C@H](O)[C@@H](NC(=O)OC(C)(C)C)c4ccccc4)C[C@@](O)([C@@H](OC(=O)c4ccccc4)[C@H]21)C3(C)C [Taxotere] | no evidence of response | refractory |  | 
5 | Nc1ccn([C@@H]2O[C@H](CO)[C@@H](O)C2(F)F)c(=O)n1 [gemcitabine] | no evidence of response |  | hypersensitivity | 
6 | O=C1[O][Pt]2([NH][C@@H]3CCCC[C@H]3[NH]2)[O]C1=O [oxaliplatin] | no evidence of response |  | hypersensitivity | 
7 | Enfortumab vedotin [Padcev®] |  |  |  | no response
